This passage reports viability, T/C and IC50 results from PubChem BioAssay AID1918938 (Molecular Pharmacology Branch, DTP, NCI, 2023).

Molecules are shown by their SMILES. Where “and” joins values, the source holds several entries; their conditions need not be identical. Identical values can stand only once.

This experiment deals with 556581-035-R-J1-PDC complex spheroid viability. The experiment can be described thus: Anticancer human tumor 556581-035-R-J1-PDC patient-derived ovarian carcinoma cell line growth inhibition. The conditions noted are these: for viability, T/C: stronger effect = lower value; for IC50: curve of compound. From the text: Multicellular complex tumor spheroid response to LSD1 Inhibitor Iadademstat in combination with a variety of drugs and investigational agents in selected tumor cell lines
The current study was undertaken to assess response to LSD1 inhibitors in combination with standard-of-care drugs and investigational agents in solid tumor complex spheroid models as well as in the K-562 leukemia. Complex spheroids include a stromal component modeled by human endothelial cells (HUVEC) and fibroblasts modeled by human mesenchymal stem cells (MSCs). The concentration ranges selected for each drug and investigational agent were based upon clinically achievable concentrations if the clinical Cmax of the agent was known.
Compounds. The drugs and investigational agents used in this study are listed on Table 1. All of the agents used, including staurosporine (NSC755774) and gemcitabine (NSC613327), were obtained from the Developmental Therapeutics Program, NCI. FDA-approved anticancer drugs are available from the NCI at http://dtp.nci.nih.gov/branches/dscb/oncology_drugset_explanation.html. Drugs and investigational agents were >95% pure by proton nuclear magnetic resonance (NMR) and liquid chromatography/mass spectrometry (LC/MS). Stock solutions were prepared at 400x in DMSO, stored at -70 degrees C, and diluted in fresh medium prior to their use. The final concentration of DMSO in cell culture wells never exceeded 0.25% (v/v). The FDA-approved anticancer drug set is available from the Developmental Therapeutics Program at https://dtp.cancer.gov/organization/dscb/obtaining/available_plates.htm. All drugs and investigational agents were tested over a range starting from a high concentration at or near the clinical Cmax and decreasing in half-log increments. If the clinical Cmax for an agent had not been determined, the highest concentration tested was 10 microM.
Cell Lines. The patient-derived cancer cell (PDC) lines: 292921-168-R-J2-PDC, K24384-001-R-PDC, and 521955-158-R2-J5-PDC pancreatic carcinomas, 556581-035-R-J1 ovarian carcinoma, 324938-238-R-J1-PDC, 855422-203-R-J1-PDC and 883617-216-R-J1-PDC urothelial bladder carcinomas, 743489-274-T-PDC renal cell carcinoma, 138582-R-J1 Merkel cell tumor, K60290-347-R-J1 and K57222-313-R-J1-PDC glioblastomas, 653999-131-R-J2-PDC, LG0703-F948-PDC, and 349418-098-R-PDC non-small cell lung carcinomas, 885512-296-R-J2-PDC, 171881-019-R-J1-PDC breast carcinomas and 186277-243-T-J2-PDC and 233499-124-R-J2-PDC colon carcinomas were obtained from the NCI Patient-Derived Models Repository (PDMR, https://pdmr.cancer.gov). The established cell lines NCI/ADR-RES (RRID:CVCL_14520 and OVCAR-5 (RRID:CVCL_1628) ovarian carcinomas, 786-O (RRID:CVCL_1051) and A498 (RRID:CVCL_A498) renal cell carcinoma, NCI-H211 (ATCC, cat. CRL-5824; RRID:CVCL_1529), NCI-H196 (ATCC, cat. CRL-5823, RRID:CVCL_1509), SW 1271 (ATCC, cat. CRL-2177, RRID:CVCL_1716) and NCI-H1876 (ATCC, cat. CRL-5902, RRID:CVCL_1503) small cell lung carcinomas, MDA-MB-231 (RRID:CVCL_0062) and MDA-MB-468 (RRID:CVCL_0419)breast carcinomas (10-12). Pooled donor human umbilical vein endothelial cells (HUVEC, Lonza, cat. CC-2519) and human mesenchymal stem cells (hMSC, Lonza, cat. PT-2501) were purchased from Lonza (Walkersville, MD).
Cell Culture. All cells were maintained in an incubator at 37 degrees C and 5% CO2 with 95% humidity. The PDC lines were cultured according to standard operating procedures established by the NCI PDMR (https://pdmr.cancer.gov). Briefly all PDCs were thawed and cultured in Matrigel-coated flasks prepared with a working solution of 1X Ham's F-12 nutrient mix, without supplementation (Invitrogen, Waltham, MA, cat. 11765054), 100 U/mL penicillin-streptomycin (Invitrogen, cat. 15140122), and 2.5% Matrigel (Corning Inc., Corning, NY, cat. 354248) for the first three passages. […]
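Also: spheroids exposed to agents for seven days.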

Consider `Cn1ncnc1C1c2n[nH]c(=O)c3cc(F)cc(c23)NC1c1ccc(F)cc1` (configuration not stated), for which the IC50 is greater than 100 nM. In addition, for the setting “compound 0.000316 µM”, the viability, T/C is 102% and 114%. For the same compound, the viability, T/C (compound 0.001 µM) was 118% and 97.2%. The viability, T/C (compound 0.00316 µM) was 105% and 86.9%. The viability, T/C (compound 0.01 µM) was 108% and 86.5%. Besides, the viability, T/C (compound 0.0316 µM) is 93.6% and 103%. For the same compound, the viability, T/C (compound 0.1 µM) is 98.9% and 91.4%.
With `NS(=O)(=O)OCC1CC(n2ccc3c(NC4CCc5ccccc54)ncnc32)CC1O` (configuration not stated), the IC50 is > 3000 nM and 407 nM. In addition, the viability, T/C (compound 0.00949 µM) is 121% and 104%. In addition, the viability, T/C (compound 0.03 µM) is 122% and 77%. The viability, T/C (compound 0.0949 µM) was 111% and 74%. In addition, for the setting “compound 0.3 µM”, the viability, T/C is 106% and 51.3%. For the same compound, the viability, T/C (compound 0.949 µM) is 91.9% and 37.8%. Besides, the viability, T/C (compound 3 µM) was 56.7% and 38%.
On to `Nc1ccccc1NC(=O)c1ccc(CNC(=O)OCc2cccnc2)cc1`, for which the IC50 is 133 nM and 97.8 nM. The viability, T/C (compound 0.00949 µM) is 88.5% and 100%. Besides, the viability, T/C (compound 0.03 µM) is 82% and 76.7%. Further, the viability, T/C (compound 0.0949 µM) is 56.3% and 50.2%. Also, under “compound 0.3 µM”, the viability, T/C is 30.6% and 28.9%. Also, the viability, T/C (compound 0.949 µM) is 13.6% and 7.68%. Besides, the viability, T/C (compound 3 µM) was 1.18% and 0.51%.
Regarding `Nc1ccn(C2OC(CO)C(O)C2(F)F)c(=O)n1` (configuration not stated), the IC50 was 2.64 nM and 1.98 nM. In addition, the viability, T/C (compound 0.000949 µM) is 73.7% and 82.5%. In addition, the viability, T/C (compound 0.003 µM) is 48.6% and 31.7%. Further, the viability, T/C (compound 0.00949 µM) was 36% and 23.9%. Also, the viability, T/C (compound 0.03 µM) is 36.7% and 26.2%. Moreover, under “compound 0.0949 µM”, the viability, T/C is 40.7% and 26.8%. Besides, under “compound 0.3 µM”, the viability, T/C was 35.3% and 23.3%.
In the case of `Nc1ncn(C2CC(O)C(CO)O2)c(=O)n1` (configuration not stated), the IC50 was greater than 1000 nM. Besides, the viability, T/C (compound 0.00316 µM) is 98.7% and 115%. The viability, T/C (compound 0.01 µM) is 102% and 100%. The viability, T/C (compound 0.0316 µM) is 108% and 99.9%. The viability, T/C (compound 0.1 µM) was 84.2% and 79.4%. The viability, T/C (compound 0.316 µM) is 88.6% and 107%. Further, the viability, T/C (compound 1 µM) was 80.9% and 101%.
As for `Nc1ncn(C2CC(O)C(CO)S2)c(=O)n1` (configuration not stated), the IC50 was 184 nM and 48 nM. For the same compound, the viability, T/C (compound 0.000949 µM) was 92.4% and 104%. In addition, the viability, T/C (compound 0.003 µM) is 110% and 102%. Besides, the viability, T/C (compound 0.00949 µM) is 94.5% and 81.4%. Also, for the setting “compound 0.03 µM”, the viability, T/C was 75.4% and 63.8%. Besides, where the note is “compound 0.0949 µM”, the viability, T/C was 56.8% and 32.5%. In addition, the viability, T/C (compound 0.3 µM) was 45.3% and 17.8%.
For the compound `O=C(C=Cc1cccc(S(=O)(=O)Nc2ccccc2)c1)NO`, the IC50 is 111 nM and 68.4 nM. Moreover, the viability, T/C (compound 0.00949 µM) was 88.8% and 89.7%. Further, under “compound 0.03 µM”, the viability, T/C was 77.9% and 83.8%. Besides, the viability, T/C (compound 0.0949 µM) is 54.2% and 35.2%. Besides, where the note is “compound 0.3 µM”, the viability, T/C was 23.9% and 15.3%. Further, the viability, T/C (compound 0.949 µM) was 1.68% and 0.7%. Moreover, the viability, T/C (compound 3 µM) is 0.32% and 3.39%.
Take `O=C(C=Cn1cnc(-c2cc(C(F)(F)F)cc(C(F)(F)F)c2)n1)NNc1cnccn1`: the IC50 was 329 nM and 67.6 nM. For the same compound, the viability, T/C (compound 0.00316 µM) is 84.8%. The viability, T/C (compound 0.01 µM) was 82.9% and 87.8%. Moreover, the viability, T/C (compound 0.0316 µM) is 83.4% and 74%. Also, under “compound 0.1 µM”, the viability, T/C was 68.8% and 37.2%. Also, the viability, T/C (compound 1 µM) was 15.9% and 3.46%.
For `O=C(c1cc(Cc2n[nH]c(=O)c3ccccc23)ccc1F)N1CCN(C(=O)C2CC2)CC1`, the IC50 was greater than 10000 nM. For the same compound, the viability, T/C (compound 0.0316 µM) is 95.3% and 96.8%. Besides, the viability, T/C (compound 0.1 µM) is 94.3% and 94.5%. Under “compound 0.316 µM”, the viability, T/C was 98.2% and 89.4%. In addition, the viability, T/C (compound 1 µM) was 98.1% and 89.3%. In addition, the viability, T/C (compound 3.16 µM) was 87.5% and 78.2%. Further, the viability, T/C (compound 10 µM) was 75.2% and 64.5%.

One may read the viability, T/C as the result in the treated group divided by that in the control group, in per cent. The IC50 is the concentration needed to halve the response being measured.
